Consider seven molecules from PMC6445542 (Marmara pharmaceutical journal, 2013).

The structures appear in SMILES notation.

In one experiment the target is HCV NS5B RNA dependent RNA polymerase (NS5BCΔ21) (Hepatitis C virus genotype 1b, UniProt P26663). Put plainly: HCV NS5B RdRp primer dependent elongation. The format is biochemical.
Details: not given
One may read the IC50 as the midpoint of a concentration-inhibition curve. The low end stands for greater potency, the high end for weaker potency. As for `CCCCNC(=S)NNC(=O)CC1(CC)OCCc2c1[nH]c1c(CC)cccc21` (centres unmarked) [Compound 3d, 1-[2-(1,8-Diethyl-1,3,4,9-tetrahydropyrano[3,4-b]indole-1-yl)acetyl]-4-butyl thiosemicarbazide], inhibition was half-maximal at 29.2 ± 1.4 µM (IC50).

The same experiment, now with this note: read-out: % Inhibition (100 μM) of HCV NS5B RdRp activity.
The term inhibition denotes the share of the control response that was lost under treatment. As to `CCc1cccc2c3c([nH]c12)C(CC)(CC(=O)O)OCC3` (racemic) [Etodolac, (R,S) 2-[1,8-diethyl-1,3,4-tetrahydropyrano (3,4-b)indole-1-yl]acetic acid, reference compound], the inhibition at 100 µM was about 10%.
With `CCCNC(=S)NNC(=O)CC1(CC)OCCc2c1[nH]c1c(CC)cccc21` (centres unmarked) [Compound 3c, 1-[2-(1,8-Diethyl-1,3,4,9-tetrahydropyrano[3,4-b]indole-1-yl)acetyl]-4-propyl thiosemicarbazide], the inhibition at 100 µM was found to be 34.6 ± 1.1%.
Still for that read-out and setting: the same measure for `CCCCNC(=S)NNC(=O)CC1(CC)OCCc2c1[nH]c1c(CC)cccc21` (centres unmarked) [Compound 3d, 1-[2-(1,8-Diethyl-1,3,4,9-tetrahydropyrano[3,4-b]indole-1-yl)acetyl]-4-butyl thiosemicarbazide]: 68.7 ± 0.9%; for `CCc1cccc2c3c([nH]c12)C(CC)(CC(=O)NNC(=S)NC1CCCCC1)OCC3` (centres unmarked) [Compound 3h, 1-[2-(1,8-Diethyl-1,3,4,9-tetrahydropyrano[3,4-b]indole-1-yl)acetyl]-4-cyclohexyl thiosemicarbazide]: 47.4 ± 0.9%.
`CCc1cccc2c3c([nH]c12)C(CC)(CC(=O)NNC(=S)Nc1ccccc1)OCC3` (centres unmarked) [Compound 3g, 1-[2-(1,8-Diethyl-1,3,4,9-tetrahydropyrano[3,4-b]indole-1-yl)acetyl]-4-phenyl thiosemicarbazide]: the inhibition at 100 µM was 38.9 ± 0.9%.
As for `CCc1cccc2c3c([nH]c12)C(CC)(CC(=O)NNC(=S)NCc1ccccc1)OCC3` (centres unmarked) [Compound 3f, 1-[2-(1,8-Diethyl-1,3,4,9-tetrahydropyrano[3,4-b]indole-1-yl)acetyl]-4-benzyl thiosemicarbazide], the inhibition at 100 µM was 23.4 ± 1.8%.
Take `CCNC(=S)NNC(=O)CC1(CC)OCCc2c1[nH]c1c(CC)cccc21` (centres unmarked) [Compound 3b, 1-[2-(1,8-Diethyl-1,3,4,9-tetrahydropyrano[3,4-b]indole-1-yl)acetyl]-4-ethyl thiosemicarbazide]: the inhibition at 100 µM came to 49.9 ± 0.3%.
